Reference: US9365554B2, “Viral polymerase inhibitors” (BIOTA SCIENTIFIC MANAGEMENT PTY LTD, priority 2012, dated 2016)

Key:
[1] = target: T1, 1b (BK) NS5BΔ21 (Hepatitis C virus genotype 1b, UniProt P26663); experiment: HCV Polymerase Inhibition Assay; assay type: biochemical; settings: in each of the HCV assays tested (polymerase and replicon assays)
T1 construct: 100 nM, 1b (BK) NS5BΔ21
Protocol: HCV polymerase reactions were carried out using a modified method of Howe et al., Antimicrobial Agents and Chemotherapy 2004 48(12): 4813-4821. Reactions contained a final concentration of, 0.5% DMSO, 100 nM, 1b (BK) NS5BΔ21, 20 mM Tris-HCl pH 7.5, 5 mM MgCl2, 5 mM MnCl2, 3 mM DTT, 0.05% BSA, 0.2 U/μL RNasin, 10 μg/mL Poly(rC) template, GTP (at Km) and 0.05 μCi/μL ^33P-GTP in a total reaction volume of 50 μL. Compounds were tested in a three fold dilution series, for example starting from 50 μM. Reactions were initiated with the addition of GTP and terminated after 90 min with 50 μL ice cold 0.2 M EDTA. Terminated reactions were transferred to DEAE 96-well filter plates, unincorporated nucleotides washed from the filters and 50 μL scintillation fluid added prior to reading on a scintillation counter. The compound concentration that reduced ^33P-GTP incorporation by 50% (IC50) was calculated using non-linear regression.

[2] = Aqueous Solubility (laser nephelometry); assay type: physicochemical; settings: at both pH2 and pH6.5; good solubility when >25 ug/mL
Protocol: Test compounds prepared in DMSO were screened in duplicate over a range of concentrations (1.6-100 ug/mL) in different aqueous media (for example a pH6.5 buffers which are relevant to the stomach and upper regions of the small intestine and therefore important when predicting the amount of drug likely to be in solution following oral administration). Test compounds were serially diluted in 100% DMSO ranging from 10-0.16 mg/mL. These titrated DMSO stocks were then further diluted 1:100 with assay buffer and added to test plates (UV Star Griener 384 well plates), maintaining the DMSO concentration at 1%.

T1 sequence (P26663 2420-2989, stated change not applied): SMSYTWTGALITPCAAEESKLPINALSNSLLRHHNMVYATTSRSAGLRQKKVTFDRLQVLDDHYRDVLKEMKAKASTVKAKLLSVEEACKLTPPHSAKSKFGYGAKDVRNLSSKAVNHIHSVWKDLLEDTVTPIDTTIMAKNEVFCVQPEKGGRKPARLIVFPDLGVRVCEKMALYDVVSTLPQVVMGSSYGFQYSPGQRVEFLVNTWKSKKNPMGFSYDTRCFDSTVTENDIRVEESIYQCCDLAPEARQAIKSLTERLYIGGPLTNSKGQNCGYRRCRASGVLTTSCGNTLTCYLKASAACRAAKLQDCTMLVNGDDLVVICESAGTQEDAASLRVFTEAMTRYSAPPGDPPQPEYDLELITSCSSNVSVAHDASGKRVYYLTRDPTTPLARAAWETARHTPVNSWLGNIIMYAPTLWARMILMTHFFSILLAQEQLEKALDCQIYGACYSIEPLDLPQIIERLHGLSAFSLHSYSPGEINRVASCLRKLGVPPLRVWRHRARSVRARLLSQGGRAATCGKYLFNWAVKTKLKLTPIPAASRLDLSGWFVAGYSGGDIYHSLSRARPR

Row | Structure (SMILES) | times more potent than Compound A [1] | solubility (in words) [2]
1 | CCN(c1cc2nn(-c3ccc(C)cn3)c(C(=O)NC)c2cc1C1CC1)S(C)(=O)=O [Compound 5, 5-cyclopropyl-6-[ethyl(methylsulfonyl)amino]-N-methyl-2-(5-methylpyridin-2-yl)-2H-indazole-3-carboxamide] | at least 10 times | good solubility
2 | CCN(c1cc2nn(-c3ccc(C)nc3)c(C(=O)NC)c2cc1C1CC1)S(C)(=O)=O [Compound A, 5-Cyclopropyl-6-[ethyl(methylsulfonyl)amino]-N-methyl-2-(6-methylpyridin-3-yl)-2H-indazole-3-carboxamide, reference compound] | – | very poorly soluble
